Data taken from ChEMBL document CHEMBL4418488, “Compounds and methods of treating ocular disorders” (2017).
Active and inactive are the calls of the source. No cut-off for these calls is given here.

Experiments:
Mus musculus [1] = experiment: Protective effect against intense light-induced retinal degeneration in 4 weeks old Abca4(-/-)/Rdh8 (-/-) mouse assessed as effect on thickness of outer nuclear layer at 1 mg dosed via gavage under dark for 24 hrs before exposure to 10000 lux bright light for 1 hr by SDOCT and ERG analysis; type: functional, organism-based
[2] = Toxicity in 4 weeks old Abca4(-/-)/Rdh8 (-/-) mouse model of intense light-induced retinal degeneration at 1 mg dosed via gavage under dark for 24 hrs before exposure to 10000 lux bright light for 1 hr by SDOCT and ERG analysis; type: organism-based; conditions: in vivo, po
[3] = Drug metabolism in 4 weeks old Abca4(-/-)/Rdh8 (-/-) mouse model of intense light-induced retinal degeneration assessed as accumulation of intense amide peaks in liver at 1 mg dosed via gavage under dark for 24 hrs before exposure to 10000 lux bright light for 1 hr […]; type: ADME, organism-based; conditions: in vivo, po
Mus musculus [4] = experiment: Protective effect against intense light-induced retinal degeneration in 4 weeks old Abca4(-/-)/Rdh8 (-/-) mouse assessed as 11-cis retinal levels at 1 mg dosed via gavage under dark for 24 hrs before exposure to 10000 lux bright light for 1 hr by HPLC analysis; type: functional
Mus musculus [5] = experiment: Protective effect against intense light-induced retinal degeneration in wild type mouse assessed as rate of visual chromophore recovery by measuring 11-cis- retinal level in eye at 0.2 mg pretreated with compound followed by exposure to light illumination 7 days after compound dosing (reference value: 85 +/- 5%) by HPLC analysis; type: functional, organism-based
Mus musculus [6] = experiment: Protective effect against intense light-induced retinal degeneration in 4 weeks old Abca4(-/-)/Rdh8 (-/-) mouse assessed as inhibition of rate of visual chromophore recovery by measuring 11-cis- retinal level in eye at 0.1 mg dosed via gavage under dark for 24 hrs before exposure to 10000 lux bright light for 1 hr by HPLC analysis relative to control; type: functional
Mus musculus [7] = experiment: Protective effect against intense light-induced retinal degeneration in 4 weeks old Abca4(-/-)/Rdh8 (-/-) mouse at 0.1 mg dosed via gavage under dark for 24 hrs before exposure to 10000 lux bright light for 1 hr followed by exposure to dark for 3 days by OCT analysis; type: functional, organism-based
Mus musculus [8] = experiment: Protective effect against intense light-induced retinal degeneration in 4 weeks old Abca4(-/-)/Rdh8 (-/-) mouse at 0.2 mg dosed via gavage under dark for 24 hrs before exposure to 10000 lux bright light for 1 hr followed by exposure to dark for 3 days by ERG analysis; type: functional, organism-based
Mus musculus [9] = experiment: Protective effect against intense light-induced retinal degeneration in 4 weeks old Abca4(-/-)/Rdh8 (-/-) mouse at 0.5 mg dosed via gavage under dark for 24 hrs before exposure to 10000 lux bright light for 1 hr followed by exposure to dark for 3 days by ERG analysis; type: functional, organism-based
Mus musculus [10] = experiment: Protective effect against intense light-induced retinal degeneration in 4 weeks old Abca4(-/-)/Rdh8 (-/-) mouse at 0.1 mg dosed via gavage under dark for 24 hrs before exposure to 10000 lux bright light for 1 hr followed by exposure to dark for 3 days by ERG analysis; type: functional, organism-based

Row | Compound | Activity (Mus musculus [1]) | Activity [2] | also measured
1 | CC1=C(/C=C/C(=C/C=C/C(C)=C/CN)C(C)(C)C)CCCC1 | inactive | Non-Toxic | –
2 | CC(/C=C/C1=CCCCC1)=C\C=C\C(C)=C\CN | inactive | Non-Toxic | –
3 | CC(/C=C/C=C(/c1ccc2ccccc2c1)C(C)(C)C)=C\CN | Active | Toxic | Drug metabolism [3]: Metabolite_Detected; Activity (Mus musculus [4]): 50%
4 | CC(/C=C/C=C(/C=C/C1=CCCCC1)C(C)(C)C)=C\CN | Active | Toxic | Drug metabolism [3]: Metabolite_Detected; Activity (Mus musculus [4]): 50%
5 | CC1=C(/C=C/C=C/C=C/C=C/CN)C(C)(C)CCC1 | Active | Non-Toxic | –
6 | COc1ccc(C(=C\C=C\C(C)=C\CN)/C=C/C2=CCCCC2)cc1 | inactive | Non-Toxic | –
7 | COc1ccc(C(=C\C=C\C(C)=C\CN)/C=C/c2ccc(O)cc2)cc1 | inactive | Non-Toxic | –
8 | CC1=C(/C=C/C(=C/C=C/C(C)=C/CN)C(C)(C)C)C(C)(C)CCC1 | inactive | Non-Toxic | –
9 | CC(/C=C/C=C(/C=C/c1ccc(C(F)(F)F)cc1)c1ccccc1)=C\CN | inactive | Toxic | –
10 | CC1=C(/C=C/C(C)=C/C=C/C(C)=C/CN)C(C)(C)CCC1 | Active | Non-Toxic | Activity (Mus musculus [5]): inactive; inhibition (INH) (Mus musculus [6]): 40%; Activity (Mus musculus [7]): inactive; Activity (Mus musculus [8]): Active; Activity (Mus musculus [9]): Active; Activity (Mus musculus [10]): inactive
11 | CC(/C=C/C=C(/C=C/c1ccccc1)C(C)(C)C)=C\CN | Active | Toxic | Drug metabolism [3]: Metabolite_Detected
12 | CC(C)(C)C(=C\C=C\CN)/C=C/C1=CCCCC1 | inactive | Toxic | –
